Data published in ChEMBL document CHEMBL1201862, “PubChem BioAssay data set” (2004).
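Protocol summary: plate cells (96-well), add compound at 5 concentrations, incubate 48 h, interpolate endpoints linearly. Here, GI50 denotes the concentration required for 50% inhibition of growth.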 The source made the active and inactive calls. Rule as the data show it: active = GI50 up to about 1.1 µM and inactive = higher.

Assays:
Assay in all cases: growth of human tumour cells (NCI), 48 h
[1] = tested on: A549
[2] = tested on: DMS-114
[3] = tested on: DMS-273
[4] = tested on: EKVX
[5] = tested on: HOP-18
[6] = tested on: IGROV-1
[7] = tested on: M14
[8] = tested on: MOLT-4
[9] = tested on: OVCAR-3
[10] = tested on: OVCAR-4
[11] = tested on: RPMI-8226
[12] = tested on: RXF 393
[13] = tested on: SK-MEL-28
[14] = tested on: SK-MEL-5
[15] = tested on: SW-620
[16] = tested on: U-251
[17] = tested on: HCC 2998
[18] = tested on: A498

Measured: GI50

CC(=O)OCC1=C(C(=O)O)C(c2ccc3c(c2)OCO3)c2cc3c(cc2O1)OCO3 (stereo unspecified)
inactive: [1] > 100 µM | [2] > 100 µM | [3] > 100 µM | [4] > 100 µM | [5] > 100 µM | [6] > 100 µM | [7] > 100 µM | [8] > 100 µM | [9] > 100 µM | [10] > 100 µM | [11] > 100 µM | [12] > 100 µM | [13] > 100 µM | [14] > 100 µM | [15] > 100 µM | [16] > 100 µM

COc1ccc(C[C@H](N)C(=O)N2C[C@@H](CO)C[C@@H](n3ccc(=O)[nH]c3=O)C2)cc1
inactive: [1] > 100 µM | [2] > 100 µM | [3] > 100 µM | [4] > 100 µM | [17] > 100 µM | [5] > 100 µM | [6] > 100 µM | [7] > 100 µM | [8] > 100 µM | [9] > 100 µM | [10] > 100 µM | [11] > 100 µM | [12] > 100 µM | [13] > 100 µM | [14] > 100 µM | [15] > 100 µM | [16] > 100 µM

NNC(=S)N/N=C(\CCCC(=O)NCCc1ccccc1)CC(=O)c1ccccc1
inactive: [18] > 100 µM | [1] > 100 µM | [2] > 100 µM | [4] > 100 µM | [17] > 100 µM | [5] > 100 µM | [6] > 100 µM | [7] > 100 µM | [9] > 100 µM | [10] > 100 µM | [12] > 100 µM | [13] > 100 µM | [14] > 100 µM | [15] > 100 µM | [16] > 100 µM

O=C(c1cccs1)N(C(=S)N1CCN(c2ccccc2)CC1)C1CCCCC1
inactive: [1] > 100 µM | [2] 58.2 µM | [3] > 100 µM | [5] > 100 µM | [6] > 100 µM | [7] > 100 µM | [8] > 100 µM | [9] > 100 µM | [10] > 100 µM | [11] > 100 µM | [12] > 100 µM | [13] > 100 µM | [14] > 100 µM | [15] > 100 µM | [16] > 100 µM

O=C(O)CN1CCSc2ccccc2CN(CC(=O)O)CCSc2ccccc2C1
inactive: [18] > 100 µM | [1] > 100 µM | [3] > 100 µM | [4] > 100 µM | [17] > 100 µM | [5] > 100 µM | [6] > 100 µM | [7] > 100 µM | [9] > 100 µM | [11] > 100 µM | [13] > 100 µM | [14] > 100 µM | [15] > 100 µM | [16] > 100 µM

CC(=O)O[C@H]1CC[C@@]2(C)C(=CC[C@H]3C4=CC=C(C(C)=O)[C@@]4(C)CCC32)C1 (stereo partly specified)
inactive: [18] 32.4 µM | [1] 36.4 µM | [3] 28.2 µM | [4] 13.1 µM | [17] 48.4 µM | [5] > 100 µM | [6] 56.2 µM | [7] 33.7 µM | [8] 11.4 µM | [9] 35.9 µM | [10] 40.6 µM | [11] 15.3 µM | [12] 26.5 µM | [13] 31 µM | [14] 17.7 µM | [15] 20.9 µM | [16] 35.7 µM

O=c1c(C(c2ccc(Cl)cc2)c2c(O)c3ccccc3n(-c3ccccc3)c2=O)c(O)c2ccccc2n1-c1ccccc1
inactive: [1] 15.2 µM | [2] 28.7 µM | [3] 36.9 µM | [4] 17.2 µM | [17] 23.3 µM | [5] > 100 µM | [6] > 100 µM | [8] 4.45 µM | [9] 29 µM | [10] 32.1 µM | [11] 14.6 µM | [12] 36.6 µM | [13] > 100 µM | [14] 28.7 µM | [15] 34 µM | [16] 16.9 µM

C/C=C/C(=O)Oc1cccc2cccnc12
inactive: [1] 18.8 µM | [2] 4.22 µM | [3] 14.6 µM | [4] 6.85 µM | [17] 20.6 µM | [5] 24.5 µM | [6] 24.6 µM | [7] 3.79 µM | [8] > 20.6 µM | [9] 3.24 µM | [10] 4.39 µM | [11] 9.73 µM | [12] 12.4 µM | [13] 14.5 µM | [14] 14.5 µM | [15] 5.61 µM | [16] 1.14 µM

Cc1cccc(=O)c([O-])c1.Cc1cccc(=O)c([O-])c1.[Bi+3].[Cl-]
inactive: [18] 16.5 µM | [1] 12.9 µM | [2] 3.3 µM | [3] 7.29 µM | [4] 15.9 µM | [17] 11.5 µM | [6] 12.3 µM | [7] 7.55 µM | [8] 5.12 µM | [9] 2.74 µM | [10] 6.07 µM | [11] 3.42 µM | [12] 8.39 µM | [13] 5.94 µM | [14] 11.3 µM | [15] 5.47 µM | [16] 11.5 µM

COC(=O)C1=C(O)c2cc(OC)c(OC)c(OC)c2[C@H](c2cc(OC)c(OC)c(OC)c2)C1C(=O)OC (stereo partly specified)
inactive: [18] 30.1 µM | [1] 49.8 µM | [2] 30.6 µM | [3] 15.8 µM | [4] 55.5 µM | [17] 27.6 µM | [6] 36.2 µM | [7] 26 µM | [8] 22.2 µM | [9] 22.9 µM | [10] 32.6 µM | [11] 28.2 µM | [12] 20.7 µM | [13] 21.8 µM | [14] 12.3 µM | [15] 29 µM | [16] 36.5 µM

COc1ccc(OC)c(CC(C)N)c1 (stereo unspecified)
inactive: [18] > 100 µM | [1] > 100 µM | [2] > 100 µM | [4] > 100 µM | [17] > 100 µM | [5] > 100 µM | [6] > 100 µM | [7] > 100 µM | [8] > 100 µM | [9] > 100 µM | [10] > 100 µM | [11] > 100 µM | [12] > 100 µM | [13] > 100 µM | [14] > 100 µM | [15] > 100 µM | [16] > 100 µM

CCCc1ccc(NCc2cc(OC)c(OC)c(OC)c2)cc1
inactive: [18] 28.3 µM | [1] 41.8 µM | [2] 15.6 µM | [4] 61 µM | [5] 31.3 µM | [6] 24.4 µM | [8] 18.2 µM | [10] 32.4 µM | [11] 12.7 µM | [12] 32.3 µM | [13] 25.1 µM | [14] 15.5 µM | [16] 29.6 µM
